These results are taken from US11583525B2, “Geranylgeranyltransferase I inhibitor for treatment of a PTEN defective cancer” (H. LEE MOFFITT CANCER CENTER AND RESEARCH INSTITUTE, INC., priority 2017, dated 2023).

Common to all, as to format: cell-based, human
One assay deals with FBXL2. The experiment in a line: Live-cell imaging of GFP-tagged FBXL2 localization in HeLa cells. The note with it: HeLa cells transfected with GFP-tagged FBXL2; GGTi-2418 15 μM for 16 h. The protocol: FIGS. 6A, 6B, 6C, 6D, 6E, 6F, 6G, and 6H that the degradation of IP3R3 is dependent on FBXL2 localization to cell membranes and on the segregase activity of p97. […] Live cell imaging was carried out with an LSM510 confocal microscope using a 63× objective. Scale bars, 10 μm. […] Cells were subsequently harvested at the indicated times for immunoblotting. […] Cells were subsequently harvested for immunoblotting. This experiment was performed once. […] The bracket on the right marks a ladder of bands which, presumably, are ubiquitinated species of IP3R3 that are not degraded when p97 is inhibited. […] Cells were subsequently stimulated with medium containing serum and harvested at the indicated time points for immunoblotting. […] Error bars indicate s.e.m. […] Thus, we propose that, after its FBXL2-mediated ubiquitination, IP3R3 is extracted from cell membranes by the segregase activity of p97 to be degraded by the proteasome. […] 24 h post-transfection, cells were treated with MG132 for 3 h before harvesting for immunoprecipitation and immunoblotting as indicated. This experiment was performed twice. […] After immunopurification with an anti-Flag resin, in vitro ubiquitination of IP3R3 was performed in the presence of UAE1, Ubch3, Ubch5 and ubiquitin (Ub). […] Samples were analysed by immunoblotting with the indicated antibodies. […]

In assay [1] the test system is IP3R3. The experiment in a line: IP3R3 stability by immunoblotting in NHFs, HeLa and HEK293T cells incubated with GGTi-2418. The note with it: HeLa, HEK293T cells, 10-15 μM GGTi-2418, NHFs 30 h then cycloheximide and ATP. Here is the method: FIGS. 6A, 6B, 6C, 6D, 6E, 6F, 6G, and 6H that the degradation of IP3R3 is dependent on FBXL2 localization to cell membranes and on the segregase activity of p97. […] Live cell imaging was carried out with an LSM510 confocal microscope using a 63× objective. Scale bars, 10 μm. […] Cells were subsequently harvested at the indicated times for immunoblotting. […] Cells were subsequently harvested for immunoblotting. This experiment was performed once. […] The bracket on the right marks a ladder of bands which, presumably, are ubiquitinated species of IP3R3 that are not degraded when p97 is inhibited. […] Cells were subsequently stimulated with medium containing serum and harvested at the indicated time points for immunoblotting. […] Error bars indicate s.e.m. […] Thus, we propose that, after its FBXL2-mediated ubiquitination, IP3R3 is extracted from cell membranes by the segregase activity of p97 to be degraded by the proteasome. […] 24 h post-transfection, cells were treated with MG132 for 3 h before harvesting for immunoprecipitation and immunoblotting as indicated. This experiment was performed twice. […] Samples were analysed by immunoblotting with the indicated antibodies. […]
Cell culture and transfections. […] All cells grown in culture were periodically monitored for mycoplasma contamination. […]
(In general: Immunoblotting shows a protein as a band on a membrane.)

Assay [2] has as its system IP3R3. The assay is described as follows: IP3R3 levels in U87 and A549 cells (immunoblotting). The note with it: U87 and A549 cells (no or low PTEN); GGTi-2418 for 16 h.

SMILES strings stand for the structures. “Also recorded” adds a separate entry of the source.

As to `Cc1nc[nH]c1CN1CCN(C(=O)N[C@@H](CC(C)C)C(=O)O)[C@@H](Cc2ccccc2)C1=O` [GGTi-2418], the FBXL2 localization entry in the assay with FBXL2 is recorded as “delocalized FBXL2; also recorded: delocalizes FBXL2 from membranes”. Also, the IP3R3 stability result with IP3R3 [1] is “stabilizes IP3R3”. Also, the IP3R3 levels result with IP3R3 [2] is listed as “IP3R3 levels increased”.
